Results: ChEMBL document CHEMBL3352205, “Indazole- and indole-5-carboxamides: selective and reversible monoamine oxidase B inhibitors with subnanomolar potency” (J Med Chem, 2014)

The compounds below were run against T1, Amine oxidase [flavin-containing] B (Homo sapiens, UniProt P27338) (assay: biochemical). Settings: not given; call rule not given here.
T1 sequence (P27338 whole entry): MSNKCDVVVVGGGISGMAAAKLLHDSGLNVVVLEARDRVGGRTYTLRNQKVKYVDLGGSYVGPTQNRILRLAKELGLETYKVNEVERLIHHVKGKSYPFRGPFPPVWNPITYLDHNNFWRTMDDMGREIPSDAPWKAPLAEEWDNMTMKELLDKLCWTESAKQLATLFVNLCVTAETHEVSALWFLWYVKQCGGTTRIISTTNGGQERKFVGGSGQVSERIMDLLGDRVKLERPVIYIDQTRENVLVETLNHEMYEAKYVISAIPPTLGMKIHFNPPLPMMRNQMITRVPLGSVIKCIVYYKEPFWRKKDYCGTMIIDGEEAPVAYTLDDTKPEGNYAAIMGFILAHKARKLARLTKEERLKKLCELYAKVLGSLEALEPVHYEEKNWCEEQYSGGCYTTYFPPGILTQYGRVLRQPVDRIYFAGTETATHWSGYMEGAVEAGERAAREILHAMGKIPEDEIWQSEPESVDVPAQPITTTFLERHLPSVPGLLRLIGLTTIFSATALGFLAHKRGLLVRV
Assay type: cell-based

| Compound | IC50 [µM] |
| --- | --- |
| Cn1ccc2cc(C(=O)Nc3ccc(Cl)c(Cl)c3)ccc21 | 0.00226 |
| O=C(Nc1ccc(F)c(F)c1)c1ccc2cn[nH]c2c1 | 1.3 |
| O=C(Cc1ccc(Cl)c(Cl)c1)Nc1ccc2[nH]ncc2c1 | 0.882 |
| COc1ccc(NC(=O)c2ccc3cn[nH]c3c2)cc1OC | > 10 |
| O=C(Nc1cc(Cl)cc(Cl)c1)c1ccc2[nH]ncc2c1 | 0.00275 |
| O=C(Nc1ccccc1)c1ccc2[nH]ncc2c1 | 0.117 |

What follows are compounds tested against T2, Amine oxidase [flavin-containing] A (Rattus norvegicus, UniProt P21396) (assay: Inhibition of rat MAO-A from mitochondria-enriched rat liver fractions using p-tyraimne substrate). Settings: not given.
T2 sequence (P21396 whole entry): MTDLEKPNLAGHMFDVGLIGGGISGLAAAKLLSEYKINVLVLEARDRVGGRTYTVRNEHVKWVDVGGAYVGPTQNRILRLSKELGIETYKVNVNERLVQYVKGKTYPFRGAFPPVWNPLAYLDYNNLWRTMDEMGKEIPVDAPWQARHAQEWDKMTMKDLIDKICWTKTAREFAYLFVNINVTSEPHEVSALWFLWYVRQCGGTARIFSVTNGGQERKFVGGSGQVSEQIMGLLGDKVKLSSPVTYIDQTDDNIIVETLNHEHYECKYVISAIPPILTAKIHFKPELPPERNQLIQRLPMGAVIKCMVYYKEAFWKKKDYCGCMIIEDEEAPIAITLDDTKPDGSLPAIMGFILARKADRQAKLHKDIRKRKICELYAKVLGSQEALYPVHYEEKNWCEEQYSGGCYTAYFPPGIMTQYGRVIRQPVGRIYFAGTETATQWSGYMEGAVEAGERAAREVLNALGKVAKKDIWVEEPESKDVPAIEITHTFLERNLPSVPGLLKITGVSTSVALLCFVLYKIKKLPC

| Compound | IC50 [µM] |
| --- | --- |
| O=C(Nc1ccc(Cl)c(Cl)c1)c1ccc2[nH]ncc2c1 | > 10 |
| O=C(Nc1ccc(Cl)c(Cl)c1)c1ccc2[nH]ccc2c1 | 6.79 |
| Clc1ccc(/N=C/c2ccc3[nH]ncc3c2)cc1Cl | > 10 |
| Cn1ccc2cc(C(=O)Nc3ccc(Cl)c(Cl)c3)ccc21 | > 10 |
| O=C(Nc1ccc(F)c(F)c1)c1ccc2cn[nH]c2c1 | > 10 |
| O=C(Cc1ccc(Cl)c(Cl)c1)Nc1ccc2[nH]ncc2c1 | > 10 |
| COc1ccc(NC(=O)c2ccc3cn[nH]c3c2)cc1OC | > 10 |
| O=C(Nc1cc(Cl)cc(Cl)c1)c1ccc2[nH]ncc2c1 | > 10 |
| O=C(Nc1ccccc1)c1ccc2[nH]ncc2c1 | > 10 |

These compounds were tested against T3, Amine oxidase [flavin-containing] A (Homo sapiens, UniProt P21397) (assay: Inhibition of human recombinant MAO-A expressed in baculovirus-infected insect cells using p-tyraimne substrate). Settings: read-out: IC50.
T3 sequence (P21397 whole entry): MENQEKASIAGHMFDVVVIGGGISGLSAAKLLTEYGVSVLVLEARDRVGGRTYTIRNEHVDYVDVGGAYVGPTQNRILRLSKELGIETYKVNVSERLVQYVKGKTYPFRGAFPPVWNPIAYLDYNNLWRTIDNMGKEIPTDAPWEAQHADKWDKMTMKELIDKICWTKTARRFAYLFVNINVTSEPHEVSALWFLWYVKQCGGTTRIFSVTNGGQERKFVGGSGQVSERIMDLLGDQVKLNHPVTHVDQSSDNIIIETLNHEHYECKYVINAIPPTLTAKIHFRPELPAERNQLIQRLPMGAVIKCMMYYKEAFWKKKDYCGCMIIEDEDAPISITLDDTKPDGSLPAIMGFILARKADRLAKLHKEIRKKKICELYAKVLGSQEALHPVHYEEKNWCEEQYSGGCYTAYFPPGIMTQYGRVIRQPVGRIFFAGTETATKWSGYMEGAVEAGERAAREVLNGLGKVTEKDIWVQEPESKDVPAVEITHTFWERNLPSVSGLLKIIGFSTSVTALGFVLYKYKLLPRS

| Compound | IC50 [µM] |
| --- | --- |
| O=C(Nc1ccc(Cl)c(Cl)c1)c1ccc2[nH]ncc2c1 | ≥ 10 |
| O=C(Nc1ccc(Cl)c(Cl)c1)c1ccc2[nH]ccc2c1 | 1.3 |
| Clc1ccc(/N=C/c2ccc3[nH]ncc3c2)cc1Cl | < 10 |
| O=C(Nc1ccc(Cl)c(F)c1)c1ccc2[nH]ncc2c1 | > 10 |
| Cn1ccc2cc(C(=O)Nc3ccc(Cl)c(Cl)c3)ccc21 | > 10 |
| O=C(Nc1ccc(F)c(F)c1)c1ccc2cn[nH]c2c1 | > 10 |
| O=C(Cc1ccc(Cl)c(Cl)c1)Nc1ccc2[nH]ncc2c1 | > 10 |
| COc1ccc(NC(=O)c2ccc3cn[nH]c3c2)cc1OC | > 10 |
| O=C(Nc1cc(Cl)cc(Cl)c1)c1ccc2[nH]ncc2c1 | > 10 |
| O=C(Nc1ccccc1)c1ccc2[nH]ncc2c1 | > 10 |

What follows are compounds tested against T2, Amine oxidase [flavin-containing] A (assay: Inhibition of rat MAO-A in rat-liver mitochondrial-fraction using [14C]-5-HT substrate). Settings: not given.

| Compound | IC50 [µM] |
| --- | --- |
| C#CCNCc1cc2cc(OCc3ccccc3)ccc2[nH]1 | 0.022 |

These compounds were tested against T4, Amine oxidase [flavin-containing] B (Rattus norvegicus, UniProt P19643) (assay: Inhibition of rat MAO-B from mitochondria-enriched rat liver fractions using p-tyraimne substrate). Settings: not given.
T4 sequence (P19643 whole entry): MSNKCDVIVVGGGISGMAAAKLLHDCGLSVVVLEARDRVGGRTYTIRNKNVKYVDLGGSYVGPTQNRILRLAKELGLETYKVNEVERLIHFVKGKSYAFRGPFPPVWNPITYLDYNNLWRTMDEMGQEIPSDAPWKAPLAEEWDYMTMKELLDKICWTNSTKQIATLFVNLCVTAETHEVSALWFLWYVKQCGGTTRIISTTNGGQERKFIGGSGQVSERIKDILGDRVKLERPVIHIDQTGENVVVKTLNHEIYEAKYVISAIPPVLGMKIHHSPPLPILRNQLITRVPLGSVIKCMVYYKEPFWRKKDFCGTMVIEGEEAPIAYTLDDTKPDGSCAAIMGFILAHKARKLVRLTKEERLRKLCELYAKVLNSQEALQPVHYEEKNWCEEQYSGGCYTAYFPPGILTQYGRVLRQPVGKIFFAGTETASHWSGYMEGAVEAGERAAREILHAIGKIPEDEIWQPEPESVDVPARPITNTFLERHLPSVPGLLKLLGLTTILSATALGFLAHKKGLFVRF

| Compound | IC50 [µM] |
| --- | --- |
| O=C(Nc1ccc(Cl)c(Cl)c1)c1ccc2[nH]ncc2c1 | 0.00143 |
| O=C(Nc1ccc(Cl)c(Cl)c1)c1ccc2[nH]ccc2c1 | 0.00101 |
| Cn1ccc2cc(C(=O)Nc3ccc(Cl)c(Cl)c3)ccc21 | 0.00111 |
| O=C(Nc1ccc(F)c(F)c1)c1ccc2cn[nH]c2c1 | < 10 |
| O=C(Cc1ccc(Cl)c(Cl)c1)Nc1ccc2[nH]ncc2c1 | > 10 |
| COc1ccc(NC(=O)c2ccc3cn[nH]c3c2)cc1OC | > 10 |
| O=C(Nc1cc(Cl)cc(Cl)c1)c1ccc2[nH]ncc2c1 | 0.00273 |
| O=C(Nc1ccccc1)c1ccc2[nH]ncc2c1 | 0.708 |

Organism: Homo sapiens
Test: Selectivity index, ratio of IC50 for human recombinant MAO-A to IC50 for human recombinant MAO-B
Settings: not given

| Compound | Ratio IC50 |
| --- | --- |
| COc1cc(NC(=O)c2ccc3[nH]ncc3c2)ccc1Cl | 2020 |
| O=C(Nc1ccc(Cl)c(Cl)c1)c1ccc2[nH]ncc2c1 | 17100 |
| O=C(Nc1ccc(O)c(Cl)c1)c1ccc2[nH]ncc2c1 | > 81 |
| O=C(Nc1ccc(F)c(F)c1)c1ccc2[nH]ncc2c1 | 6290 |
| COc1ccc(NC(=O)c2ccc3[nH]ncc3c2)cc1Cl | 2920 |
| O=C(Nc1ccc(Cl)c(F)c1)c1ccc2[nH]ncc2c1 | 15000 |
| O=C(Nc1ccc(Cl)c(O)c1)c1ccc2[nH]ncc2c1 | 80 |
| Cn1ccc2cc(C(=O)Nc3ccc(Cl)c(Cl)c3)ccc21 | 4420 |
| O=C(Nc1ccc(F)c(F)c1)c1ccc2cn[nH]c2c1 | > 7 |
| O=C(Cc1ccc(Cl)c(Cl)c1)Nc1ccc2[nH]ncc2c1 | > 11 |
| COc1ccc(NC(=O)c2ccc3[nH]ncc3c2)cc1OC | > 54 |
| O=C(Nc1cc(Cl)cc(Cl)c1)c1ccc2[nH]ncc2c1 | 3640 |
| O=C(Nc1ccccc1)c1ccc2[nH]ncc2c1 | > 86 |
| O=C(Nc1cnc(Cl)c(Cl)c1)c1ccc2[nH]ncc2c1 | 1840 |

What follows are compounds tested against T1, Amine oxidase [flavin-containing] B (assay: Reversible inhibition of human recombinant MAO-B expressed in baculovirus-infected insect cells using p-tyraimne substrate at 1 nM for 22 mins). Settings: 0.001 µM.

| Compound | inhibition (INH) |
| --- | --- |
| O=C(Nc1ccc(Cl)c(Cl)c1)c1ccc2[nH]ncc2c1 | Active |

What follows are compounds tested against T4, Amine oxidase [flavin-containing] B (assay: Inhibition of rat MAO-B in rat-liver mitochondrial-fraction using [14C]-PEA substrate). Settings: not given.

| Compound | IC50 [µM] |
| --- | --- |
| C#CCNCc1cc2cc(OCc3ccccc3)ccc2[nH]1 | 1.25 |
